# Laboratory results published in PubChem BioAssay (NCI).
#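 Tested at 5 concentrations; 48 h exposure; 96-well plates; endpoints linearly interpolated, else capped at highest concentration. GI50 marks 50% less growth. TGI: concentration producing complete growth inhibition.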
# Experiments:
# Test in all cases: NCI anticancer screen, dose series, 48 h
# COLO 205 colon = test system: COLO 205 colon
# ACHN renal = test system: ACHN renal
# HL-60(TB) leukemia = test system: HL-60(TB) leukemia
# DU-145 prostate = test system: DU-145 prostate
# TK-10 renal = test system: TK-10 renal
# T-47D breast = test system: T-47D breast
# MALME-3M melanoma = test system: MALME-3M melanoma
# NCI-H226 lung = test system: NCI-H226 lung
# UACC-62 melanoma = test system: UACC-62 melanoma
# SK-MEL-28 melanoma = test system: SK-MEL-28 melanoma
# HS 578T breast = test system: HS 578T breast
# NCI-H23 lung = test system: NCI-H23 lung
# MDA-MB-468 breast = test system: MDA-MB-468 breast
# HT29 colon = test system: HT29 colon
# EKVX NSCLC = test system: EKVX NSCLC
# U251 CNS = test system: U251 CNS
# SN12C renal = test system: SN12C renal
# K-562 leukemia = test system: K-562 leukemia
# NCI-H522 lung = test system: NCI-H522 lung
# OVCAR-4 ovarian = test system: OVCAR-4 ovarian
# BT-549 breast = test system: BT-549 breast
# HCT-15 colon = test system: HCT-15 colon
# LOX IMVI melanoma = test system: LOX IMVI melanoma
# OVCAR-5 ovarian = test system: OVCAR-5 ovarian
# HCT-116 colon = test system: HCT-116 colon
# SNB-19 CNS = test system: SNB-19 CNS
# NCI/ADR-RES ovarian = test system: NCI/ADR-RES ovarian
# 786-0 renal = test system: 786-0 renal
# OVCAR-8 ovarian = test system: OVCAR-8 ovarian
# SF-295 CNS = test system: SF-295 CNS
# SK-OV-3 ovarian = test system: SK-OV-3 ovarian
# KM12 colon = test system: KM12 colon
# NCI-H460 lung = test system: NCI-H460 lung
# SF-268 CNS = test system: SF-268 CNS
# A549 NSCLC = test system: A549 NSCLC
# PC-3 prostate = test system: PC-3 prostate
# MDA-MB-435 = test system: MDA-MB-435
# IGROV1 ovarian = test system: IGROV1 ovarian
# SK-MEL-5 melanoma = test system: SK-MEL-5 melanoma
# OVCAR-3 ovarian = test system: OVCAR-3 ovarian
# RXF 393 renal = test system: RXF 393 renal
# M14 melanoma = test system: M14 melanoma
# MCF7 breast = test system: MCF7 breast
# UACC-257 melanoma = test system: UACC-257 melanoma
# SW-620 colon = test system: SW-620 colon
# HCC-2998 colon = test system: HCC-2998 colon
# MOLT-4 leukemia = test system: MOLT-4 leukemia
# RPMI-8226 leukemia = test system: RPMI-8226 leukemia
# CCRF-CEM leukemia = test system: CCRF-CEM leukemia
# A498 renal = test system: A498 renal
# HOP-62 NSCLC = test system: HOP-62 NSCLC
# SR leukemia = test system: SR leukemia
# HOP-92 NSCLC = test system: HOP-92 NSCLC
# SF-539 CNS = test system: SF-539 CNS
# CAKI-1 renal = test system: CAKI-1 renal
compound,measurement,setting,value
O=C1N/C(=N\c2nccs2)S/C1=C\c1ccc([N+](=O)[O-])cc1,GI50,COLO 205 colon,7.7 µM
same,TGI,COLO 205 colon,23.9 µM
same,GI50,ACHN renal,5.49 µM
same,TGI,ACHN renal,35.2 µM
same,GI50,HL-60(TB) leukemia,3.62 µM
same,TGI,HL-60(TB) leukemia,24.5 µM
same,GI50,DU-145 prostate,11.9 µM
same,TGI,DU-145 prostate,> 100 µM
same,GI50,TK-10 renal,12.8 µM
same,TGI,TK-10 renal,59.3 µM
same,GI50,T-47D breast,5.05 µM
same,TGI,T-47D breast,53.1 µM
same,GI50,MALME-3M melanoma,11.2 µM
same,TGI,MALME-3M melanoma,27.2 µM
same,GI50,NCI-H226 lung,12.5 µM
same,TGI,NCI-H226 lung,68.2 µM
same,GI50,UACC-62 melanoma,5.08 µM
same,TGI,UACC-62 melanoma,23.1 µM
same,GI50,SK-MEL-28 melanoma,14 µM
same,TGI,SK-MEL-28 melanoma,> 100 µM
same,GI50,HS 578T breast,11.6 µM
same,TGI,HS 578T breast,81.6 µM
same,GI50,NCI-H23 lung,6.8 µM
same,TGI,NCI-H23 lung,70 µM
same,GI50,MDA-MB-468 breast,4.62 µM
same,TGI,MDA-MB-468 breast,25.8 µM
same,GI50,HT29 colon,18.5 µM
same,TGI,HT29 colon,> 100 µM
same,GI50,EKVX NSCLC,4.71 µM
same,TGI,EKVX NSCLC,27.8 µM
same,GI50,U251 CNS,4.6 µM
same,TGI,U251 CNS,> 100 µM
same,GI50,SN12C renal,5.47 µM
same,TGI,SN12C renal,63.5 µM
same,GI50,K-562 leukemia,4.24 µM
same,TGI,K-562 leukemia,> 100 µM
same,GI50,NCI-H522 lung,7.47 µM
same,TGI,NCI-H522 lung,33.9 µM
same,GI50,OVCAR-4 ovarian,7.01 µM
same,TGI,OVCAR-4 ovarian,67.5 µM
same,GI50,BT-549 breast,6.87 µM
same,TGI,BT-549 breast,41.4 µM
same,GI50,HCT-15 colon,4.29 µM
same,TGI,HCT-15 colon,> 100 µM
same,GI50,LOX IMVI melanoma,4.75 µM
same,TGI,LOX IMVI melanoma,34.2 µM
same,GI50,OVCAR-5 ovarian,16.1 µM
same,TGI,OVCAR-5 ovarian,95.6 µM
same,GI50,HCT-116 colon,4.44 µM
same,TGI,HCT-116 colon,19 µM
same,GI50,SNB-19 CNS,3.58 µM
same,TGI,SNB-19 CNS,70.6 µM
same,GI50,NCI/ADR-RES ovarian,5.03 µM
same,TGI,NCI/ADR-RES ovarian,37.3 µM
same,GI50,786-0 renal,6.17 µM
same,TGI,786-0 renal,72.9 µM
same,GI50,OVCAR-8 ovarian,6.43 µM
same,TGI,OVCAR-8 ovarian,68.9 µM
same,GI50,SF-295 CNS,5.11 µM
same,TGI,SF-295 CNS,40.5 µM
same,GI50,SK-OV-3 ovarian,15.7 µM
same,TGI,SK-OV-3 ovarian,63.9 µM
same,GI50,KM12 colon,5.91 µM
same,TGI,KM12 colon,32.4 µM
same,GI50,NCI-H460 lung,4.12 µM
same,TGI,NCI-H460 lung,19.7 µM
same,GI50,SF-268 CNS,10.1 µM
same,TGI,SF-268 CNS,> 100 µM
same,GI50,A549 NSCLC,4.89 µM
same,TGI,A549 NSCLC,> 100 µM
same,GI50,PC-3 prostate,5.98 µM
same,TGI,PC-3 prostate,> 100 µM
same,GI50,MDA-MB-435,12 µM
same,TGI,MDA-MB-435,> 100 µM
same,GI50,IGROV1 ovarian,6.89 µM
same,TGI,IGROV1 ovarian,30.8 µM
same,GI50,SK-MEL-5 melanoma,7.45 µM
same,TGI,SK-MEL-5 melanoma,20.2 µM
same,GI50,OVCAR-3 ovarian,4.73 µM
same,TGI,OVCAR-3 ovarian,29.4 µM
same,GI50,RXF 393 renal,12.4 µM
same,TGI,RXF 393 renal,46.3 µM
same,GI50,M14 melanoma,9.86 µM
same,TGI,M14 melanoma,39.6 µM
same,GI50,MCF7 breast,4.44 µM
same,TGI,MCF7 breast,20.4 µM
same,GI50,UACC-257 melanoma,12.4 µM
same,TGI,UACC-257 melanoma,32.5 µM
same,GI50,SW-620 colon,4.77 µM
same,TGI,SW-620 colon,> 100 µM
same,GI50,HCC-2998 colon,6.93 µM
same,TGI,HCC-2998 colon,30.4 µM
same,GI50,MOLT-4 leukemia,2.54 µM
same,TGI,MOLT-4 leukemia,7.5 µM
same,GI50,RPMI-8226 leukemia,3.56 µM
same,TGI,RPMI-8226 leukemia,31.6 µM
same,GI50,CCRF-CEM leukemia,3.84 µM
same,TGI,CCRF-CEM leukemia,32.5 µM
same,GI50,A498 renal,14.5 µM
same,TGI,A498 renal,39.8 µM
same,GI50,HOP-62 NSCLC,6.77 µM
same,TGI,HOP-62 NSCLC,60.7 µM
same,GI50,SR leukemia,3.41 µM
same,TGI,SR leukemia,18 µM
same,GI50,HOP-92 NSCLC,4.46 µM
same,TGI,HOP-92 NSCLC,38.3 µM
same,GI50,SF-539 CNS,5.62 µM
same,TGI,SF-539 CNS,26.9 µM
same,GI50,CAKI-1 renal,12.7 µM
same,TGI,CAKI-1 renal,82.8 µM
